Assay results from patent US20250084063A1 (Incyte Corporation, priority 2023, published 2025).

Columns and labels:
Format in all cases: cell-based
MRGPRX2 [1] = target: T1, MRGPRX2 (Homo sapiens, UniProt Q96LB1); assay: MRGPRX2 IP1 HTRF assay; set-up: host or cells: CHO-K1; details: CHO-K1 cells stably expressing human MRGPRX2; IP1 accumulation, agonist Cortistatin 14 1 μM
T1 sequence (Q96LB1 1-330): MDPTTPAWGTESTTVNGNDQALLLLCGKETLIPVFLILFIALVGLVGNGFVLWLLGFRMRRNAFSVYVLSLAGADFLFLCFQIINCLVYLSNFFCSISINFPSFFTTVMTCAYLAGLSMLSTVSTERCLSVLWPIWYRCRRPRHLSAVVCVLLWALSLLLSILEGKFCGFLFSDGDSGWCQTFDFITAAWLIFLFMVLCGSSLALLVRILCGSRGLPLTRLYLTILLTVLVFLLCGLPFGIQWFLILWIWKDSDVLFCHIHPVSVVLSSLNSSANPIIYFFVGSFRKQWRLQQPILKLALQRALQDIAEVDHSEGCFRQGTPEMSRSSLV
Description: Example B: MRGPRX2 IP1 HTRF Assay
This assay measures compound inhibition of myo-Inositol 1 phosphate (IP1) accumulation in CHO-K1 cells. Chinese hamster ovary (CHO-K1) cells stably expressing human MRGPRX2 were purchased from GenScript (Piscataway, NJ).
For the HTRF IP1 determination, an IP-One GqKit (Perkin Elmer Cisbio, Waltham, MA), which includes all reagents and buffers in this protocol, was used. The cells were maintained in culture medium (Ham's F-12K) containing 10% (v/v) FBS, and 200 μg/mL Zeocin. For the assay, the cells were harvested and resuspended in culture medium with 2% FBS and without Zeocin, then were passed through a 40 μm filter. Cells were added at 20000 cells in a 5 μL/well to a 384-well white small volume cell culture plate (Greiner VWR, Radnor, PA) which contained 50 nL/well of test compound serially diluted at a selected concentration range in DMSO. 5 μL/well of prepared 2× Stimulation Buffer2 was then added to plates and was incubated at 37° C. with 5% CO2 for 1 h. 5 μL/well of agonist Cortistatin 14 (Bio-TechneR&D Systems, Minneapolis, MN) in 1× Stimulation Buffer 2, for a 1 μM final concentration, was then added to plates and incubated at 37° C. with 5% CO2 for 1 h. 6 μL/well of 1:20 diluted Detection Reagent Mix (d2 and Cryptate) was added to the plates and incubated for 1 h in the dark. Plates were read on the PHERAstar microplate reader (BMG Labtech Cary, NC) to determine the HTRF ratio of the acceptor and donor emission signals. The IP1 concentrations were calculated from a standard curve following the IP-One GQ kit instructions. Wells with DMSO only and wells with high concentration of reference antagonist were used as controls for normalization. Compound IC50 curves were globally fitted with 3- or 4-parameter Hill equation in a Genedata Screener (Genedata Basel, Switzerland).

MRGPRX2 [2] = target: T1, MRGPRX2; assay: MRGPRX2 β-Arrestin assay; set-up: host or cells: PathHunter CHO-K1; details: PathHunter CHO-K1 MRGPRX2 β-Arrestin cell line; agonist Cortistatin 14 0.25 μM
Description: Example C: MRGPRX2 β-Arrestin Assay
This assay measures compound inhibition of β-Arrestin recruitment, which is part of the G protein-independent pathway that results from the ligand-activated GPCR phosphorylation by specific GPCR kinases. The PathHunter CHO-K1 MRPGRX2 B-Arrestin Cell line stably expressing ProLink tagged MRGPRX2 and Enzyme Acceptor Tagged B-Arrestin was purchased from Eurofins DiscoverX, (Fremont, CA).
The cells were maintained in culture medium from the Europhins DiscoverX Cell Culture Kit-107 which includes FBS, hygromycin B and G418. For the assay, the cells were harvested and were resuspended with Cell Plating Reagent 2 (Eurofins DiscoverX). Cells were added 10000 cells in 25 µL/well to a 384-well black cell culture plate (Greiner VWR, Radnor, PA) which contained 125 nL/well of compound at a selected serially diluted concentration range or DMSO. The plate was incubated at 37° C. with 5% CO2 for 1 h. 2 μL/well of agonist Cortistatin 14 was diluted in Protein Dilution Buffer, (Eurofins DiscoverX) for a final concentration of 0.25 μM, was added and the plate was incubated at 37° C. with 5% CO2 for 90 min. 14 μL/well of Detection Reagent Mix (PathHunter Detection Kit, Eurofins DiscoverX) was added to the plates and further incubated for 1 h in the dark. Plates were read on the PHERAstar microplate reader (BMG Labtech Cary, NC) measuring luminescence 0.1 to 1 second per well. Data was normalized using DMSO only wells and wells with high concentration of reference antagonist as controls. Compound IC50 curves were globally fitted with 3- or 4-parameter Hill equation in a Genedata Screener (Genedata Basel, Switzerland).

MRGPRX2 [3] = target: T1, MRGPRX2; assay: MRGPRX2 FLIPR calcium mobilization assay; set-up: host or cells: CHO-K1; details: CHO-K1 cells stably expressing human MRGPRX2; Ca2+ release, agonist Cortistatin-14 at EC80
Method: Example A. MRGPRX2 FLIPR Calcium Mobilization Assay
Chinese hamster ovary (CHO-K1) cells stably expressing human MRGPRX2 were purchased from Genescript (Piscataway, NJ). The cells were maintained in culture medium (Ham's F-12K) containing 10% (v/v) FBS, 200 μg/mL Zeocin, 100 units/mL penicillin G and 100 μg/mL streptomycin (Life Technologies, Carlsbad, CA). For the assay, the cells were harvested and resuspended with culture medium without Zeocin before plating at 8000 cells per well in 20 μL in 384-well black clear bottom cell culture plates (VWR, Radnor, PA). After 24 h culture at 37° C. and 5% CO2, the cells were loaded with 20 μL/well of calcium dye (FLIPR Calcium 6 Assay Kit, Molecular Devices, San Jose, CA) diluted in loading buffer (1×Hank's Balanced Salt Solution (HBSS), 5 mM probenecid, 20 mM 4-(2-hydroxyethyl)-1-piperazineethanesulfonic acid (HEPES), pH 7.4, VWR, Radnor, PA) followed with 45 min incubation at 37° C. and 40 min at room temperature in the dark. Cells were then treated with the addition of 10 uL/well test compounds with a range of increasing concentrations diluted in the assay buffer (1×HBSS, 20 mM HEPES, pH 7.4, VWR, Radnor, PA) with FLIPR Penta (Molecular Devices. San Jose, CA) and incubated for 30 min. at room temperature. Ca^2+ release was measured with FLIPR Penta with 10 seconds basal fluorescence measurement, then 12.5 μL of 5× agonist Cortistatin-14 (Tocris, Minneapolis, MN) at final concentration corresponding to the EC80 were added followed with continued fluorescence signal monitoring for an additional 110 seconds. The base line adjusted (median of first 10s base line) max value of the Relative Fluorescence Unit (RFU) was plotted against compound concentrations. Wells with no compound were served as the positive controls, and wells with high concentration of reference antagonist were used as negative controls. IC50 curves were globally fitted with 3- or 4-parameter Hill equation in a Genedata Screener (Genedata Basel, Switzerland).

N#C[C@H]1CC[C@H](NC(=O)N2CC(CNc3cc(C(F)(F)F)nc4ccc(Cl)cc34)(c3ccc(F)cc3)C2)CC1 [Example 91, 3-(((6-Chloro-2-(trifluoromethyl)quinolin-4-yl)amino)methyl)-N-((1r,4r)-4-cyanocyclohexyl)-3-(4-fluorophenyl)azetidine-1-carboxamide]
IC50 (MRGPRX2 [1]): 0.1 to 100 nM
IC50 (MRGPRX2 [2]): 0.1 to 100 nM

Cc1nc(CN2CC(CNc3cc(C(F)(F)F)nc4ccc(Cl)cc34)(c3ccc(F)cc3)C2)c[nH]1 [Example 94, 6-Chloro-N-((3-(4-fluorophenyl)-1-((2-methyl-1H-imidazol-4-yl)methyl)azetidin-3-yl)methyl)-2-(trifluoromethyl)quinolin-4-amine]
IC50 (MRGPRX2 [1]): 0.1 to 100 nM
IC50 (MRGPRX2 [2]): 0.1 to 100 nM

CN1CC(C(=O)NC2CC(CNc3cc(C(F)(F)F)nc4ccc(Cl)cc34)(c3ccccc3)C2)C1 (stereo not shown) [Example 75, N-(3-(((6-Chloro-2-(trifluoromethyl)quinolin-4-yl)amino)methyl)-3-phenylcyclobutyl)-1-methylazetidine-3-carboxamide]
IC50 (MRGPRX2 [2]): 0.1 to 100 nM

[2H]C([2H])([2H])NC(=O)N1CC(CNc2cc(C(F)(F)F)nc3ccc(Cl)cc23)(n2cc(CC#N)cn2)C1 [Example 71, 3-(((6-Chloro-2-(trifluoromethyl)quinolin-4-yl)amino)methyl)-3-(4-(cyanomethyl)-1H-pyrazol-1-yl)-N-(methyl-d3)azetidine-1-carboxamide]
IC50 (MRGPRX2 [2]): 100 to 1000 nM

COCCN1CC(CNc2cc(C(F)(F)F)nc3ccc(Cl)cc23)(c2ccc(F)cc2)C1 [Example 92, 6-Chloro-N-((3-(4-fluorophenyl)-1-(2-methoxyethyl)azetidin-3-yl)methyl)-2-(trifluoromethyl)quinolin-4-amine]
IC50 (MRGPRX2 [2]): 0.1 to 100 nM

Cn1nccc1NC1CC(CNc2cc(C(F)(F)F)nc3ccc(Cl)cc23)(c2ccc(F)cn2)C1 (stereo not shown) [Example 72, 6-Chloro-N-((1-(5-fluoropyridin-2-yl)-3-((1-methyl-1H-pyrazol-5-yl)amino)cyclobutyl)methyl)-2-(trifluoromethyl)quinolin-4-amine]
IC50 (MRGPRX2 [2]): 0.1 to 100 nM

CN1CCC(C(=O)NC2CC(CNc3cc(C(F)(F)F)nc4ccc(Cl)cc34)(c3ccccc3)C2)CC1 (stereo not shown) [Example 76, N-(3-(((6-Chloro-2-(trifluoromethyl)quinolin-4-yl)amino)methyl)-3-phenylcyclobutyl)-1-methylpiperidine-4-carboxamide]
IC50 (MRGPRX2 [2]): 0.1 to 100 nM

[2H]C([2H])([2H])NC(=O)N1CC(CNc2cc(C(F)(F)F)nc3ccc(Cl)cc23)(n2ncc3c2CCC3)C1 [Example 69, 3-(((6-Chloro-2-(trifluoromethyl)quinolin-4-yl)amino)methyl)-3-(5,6-dihydrocyclopenta[c]pyrazol-1(4H)-yl)-N-(methyl-d3)azetidine-1-carboxamide]
IC50 (MRGPRX2 [2]): 0.1 to 100 nM

Cc1ccc2c(NCC3(c4ccc(F)cn4)CN(C(N)=O)C3)cc(C(F)(F)F)nc2c1 [Example 61, 3-(5-Fluoropyridin-2-yl)-3-(((7-methyl-2-(trifluoromethyl)quinolin-4-yl)amino)methyl)azetidine-1-carboxamide]
IC50 (MRGPRX2 [3]): > 1000 nM
IC50 (MRGPRX2 [1]): > 1000 nM

FC(F)(F)c1cc(NCC2(n3ccc(C(F)(F)F)n3)CNC2)c2cc(Cl)ccc2n1 [Example 68, 6-Chloro-2-(trifluoromethyl)-N-((3-(3-(trifluoromethyl)-1H-pyrazol-1-yl)azetidin-3-yl)methyl)quinolin-4-amine]
IC50 (MRGPRX2 [2]): 100 to 1000 nM

O=C(NC1CC(CNc2cc(C(F)(F)F)nc3ccc(Cl)cc23)(c2ccccc2)C1)C(O)C(F)(F)F (stereo not shown) [Example 77, N-(3-(((6-Chloro-2-(trifluoromethyl)quinolin-4-yl)amino)methyl)-3-phenylcyclobutyl)-3,3,3-trifluoro-2-hydroxypropanamide]
IC50 (MRGPRX2 [2]): 0.1 to 100 nM

N#Cc1ccn(C2(CNc3cc(C(F)(F)F)nc4ccc(Cl)cc34)CN(C(N)=O)C2)n1 [Example 104, 3-(((6-Chloro-2-(trifluoromethyl)quinolin-4-yl)amino)methyl)-3-(3-cyano-1H-pyrazol-1-yl)azetidine-1-carboxamide]
IC50 (MRGPRX2 [3]): 0.1 to 100 nM
IC50 (MRGPRX2 [1]): 0.1 to 100 nM

NC(=O)N1CC(CNc2cc(C(F)(F)F)nc3ccc(Cl)cc23)(c2ccccc2)C1 [Example 40, 3-(((6-Chloro-2-(trifluoromethyl)quinolin-4-yl)amino)methyl)-3-phenylazetidine-1-carboxamide]
IC50 (MRGPRX2 [3]): 0.1 to 100 nM
IC50 (MRGPRX2 [1]): 0.1 to 100 nM

NC(=O)N1CC(CNc2cc(C(F)(F)F)nc3ccc(Cl)cc23)(c2ccnc(Cl)c2)C1 [Example 42, 3-(((6-Chloro-2-(trifluoromethyl)quinolin-4-yl)amino)methyl)-3-(2-chloropyridin-4-yl)azetidine-1-carboxamide]
IC50 (MRGPRX2 [3]): 0.1 to 100 nM
IC50 (MRGPRX2 [1]): 0.1 to 100 nM

NS(=O)(=O)N1CC(CNc2cc(C(F)(F)F)nc3ccc(Cl)cc23)(c2ccnc(Cl)c2)C1 [Example 35, 3-(((6-Chloro-2-(trifluoromethyl)quinolin-4-yl)amino)methyl)-3-(2-chloropyridin-4-yl)azetidine-1-sulfonamide]
IC50 (MRGPRX2 [3]): 0.1 to 100 nM
IC50 (MRGPRX2 [1]): 0.1 to 100 nM

CNC(=O)N1CC(CNc2cc(C(F)(F)F)nc3ccc(Cl)cc23)(c2ccccc2)C1 [Example 48, 3-(((6-Chloro-2-(trifluoromethyl)quinolin-4-yl)amino)methyl)-N-methyl-3-phenylazetidine-1-carboxamide]
IC50 (MRGPRX2 [3]): 0.1 to 100 nM
IC50 (MRGPRX2 [1]): 0.1 to 100 nM

NC(=O)N1CC(CNc2cc(C(F)(F)F)nc3ccncc23)(c2ccc(F)cc2)C1 [Example 65, 3-(4-Fluorophenyl)-3-(((2-(trifluoromethyl)-1,6-naphthyridin-4-yl)amino)methyl)azetidine-1-carboxamide]
IC50 (MRGPRX2 [2]): 100 to 1000 nM
